Assay results taken from ChEMBL document CHEMBL5321290, “Discovery of the Diphenyl 6-Oxo-1,6-dihydropyridazine-3-carboxylate/carboxamide Analogue J27 for the Treatment of Acute Lung Injury and Sepsis by Targeting JNK2 and Inhibiting the JNK2-NF-κB/MAPK Pathway” (J Med Chem, 2023).
Activity calls are given as the source filed them. The rule behind the calls is not given here.

Columns and labels:
[1] = Subacute toxicity in ICR mouse assessed as pathological change in kidney at 500 to 100 mg/kg, IG measured for 10 days by hematoxylin and eosin dye based light microscopy; assay type: organism-based; conditions: in vivo, po, 240 h, dose 500-100 mg/kg, time 10 day
[2] = system: Mus musculus; test: Antiinflammatory activity against LPS-induced acute lung injury C57 mouse model assessed as decrease in LPS-induced IL-6 level in alveolar lavage fluid at 20 mg/kg, po thrice at 12 hrs interval; assay type: functional, organism-based; conditions: Bronchoalveolar lavage
[3] = system: J774.A1; test: Antiinflammatory activity against mouse J774A.1 cells assessed as inhibition of LPS-stimulated TNFalpha mRNA expression pretreated for 2 hrs followed by stimulated with LPS by RT-qPCR analysis; assay type: functional, cell-based; conditions: dose 2.5-10 µM
[4] = system: Mus musculus; test: Antiinflammatory activity against LPS-induced acute lung injury C57 mouse model assessed as increase in IkappaBalpha level in lung tissue at 40 mg/kg, po thrice at 12 hrs interval followed 30 mins treated with LPS by Western blot analysis; assay type: functional, organism-based; conditions: time 36.5 hrs
[5] = system: Mus musculus; test: Antiinflammatory activity against LPS-induced septic shock mouse model assessed as improvement in survival at 20 mg/kg, po pretreated 1 hr before LPS administration measured upto 96 hrs; assay type: functional, organism-based; conditions: time <= 97.0 hrs
[6] = target: T1, Mitogen-activated protein kinase kinase kinase 7 (Mus musculus) (UniProt Q62073); test: Inhibition of TAK1 phosphorylation in mouse J774A.1 cells pretreated at 10 uM for 2 hrs followed by induced with LPS for 30 mins by Western blot analysis; assay type: cell-based; conditions: J774.1, time 2.5 hrs
T1 sequence (whole entry): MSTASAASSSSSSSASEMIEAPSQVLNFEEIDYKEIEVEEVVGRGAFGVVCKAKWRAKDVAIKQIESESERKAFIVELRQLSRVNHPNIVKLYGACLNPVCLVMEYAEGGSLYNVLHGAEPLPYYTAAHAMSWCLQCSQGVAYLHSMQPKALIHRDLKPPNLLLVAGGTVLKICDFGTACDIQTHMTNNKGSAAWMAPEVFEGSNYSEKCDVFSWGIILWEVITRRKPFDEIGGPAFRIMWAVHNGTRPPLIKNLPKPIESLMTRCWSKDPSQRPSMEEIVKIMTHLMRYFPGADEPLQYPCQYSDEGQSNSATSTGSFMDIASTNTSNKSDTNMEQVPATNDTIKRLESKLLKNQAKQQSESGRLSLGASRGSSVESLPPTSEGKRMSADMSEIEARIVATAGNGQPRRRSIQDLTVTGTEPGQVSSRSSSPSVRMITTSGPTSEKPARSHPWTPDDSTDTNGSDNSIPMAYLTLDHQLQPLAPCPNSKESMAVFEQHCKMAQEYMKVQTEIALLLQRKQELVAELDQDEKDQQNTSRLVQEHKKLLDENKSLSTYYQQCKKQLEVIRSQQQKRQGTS

[7] = target: Mitogen-activated protein kinase 9 (Homo sapiens, UniProt P45984); test: Binding affinity to JNK2 (unknown origin) assessed as dissociation constant by SPR analysis
[8] = target: T2, Inhibitor of nuclear factor kappa-B kinase subunit beta (Homo sapiens) (UniProt O14920); test: Inhibition of IKKbeta (unknown origin) assessed as inhibition rate at 10 uM by SPR analysis relative to control
T2 sequence (whole entry): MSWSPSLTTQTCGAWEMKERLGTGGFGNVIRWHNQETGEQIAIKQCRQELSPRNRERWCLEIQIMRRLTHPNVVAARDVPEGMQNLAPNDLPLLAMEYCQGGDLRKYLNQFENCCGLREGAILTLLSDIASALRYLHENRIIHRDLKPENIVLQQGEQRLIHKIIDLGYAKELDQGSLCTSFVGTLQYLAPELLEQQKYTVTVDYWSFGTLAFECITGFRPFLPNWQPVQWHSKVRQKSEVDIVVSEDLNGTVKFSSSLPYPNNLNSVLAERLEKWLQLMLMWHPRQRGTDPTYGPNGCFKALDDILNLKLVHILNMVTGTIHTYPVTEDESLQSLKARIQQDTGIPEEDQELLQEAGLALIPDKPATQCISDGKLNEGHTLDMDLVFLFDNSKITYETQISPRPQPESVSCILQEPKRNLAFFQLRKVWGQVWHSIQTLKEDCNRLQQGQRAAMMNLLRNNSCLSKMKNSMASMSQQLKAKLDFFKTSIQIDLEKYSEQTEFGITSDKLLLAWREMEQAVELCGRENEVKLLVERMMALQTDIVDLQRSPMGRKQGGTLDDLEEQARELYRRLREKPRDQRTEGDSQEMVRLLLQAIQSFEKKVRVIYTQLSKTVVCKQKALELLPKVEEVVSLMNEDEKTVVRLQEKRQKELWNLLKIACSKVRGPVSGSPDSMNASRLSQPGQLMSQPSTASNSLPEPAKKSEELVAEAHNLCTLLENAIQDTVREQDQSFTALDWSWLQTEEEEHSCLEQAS

[9] = system: Mus musculus; test: Antiinflammatory activity against LPS-induced acute lung injury C57 mouse model assessed as reduction in LPS-induced neutrophil numbers in alveolar lavage fluid at 20 to 40 mg/kg, po thrice at 12 hrs interval followed 30 mins treated with LPS; assay type: functional, organism-based; conditions: dose 20-40 mg/kg, time 36.5 hrs
[10] = system: Mus musculus; test: Antiinflammatory activity against LPS-induced acute lung injury C57 mouse model assessed as decrease in LPS-induced protein concentration in broncho alveolar lavage fluid at 20 mg/kg, po thrice at 12 hrs interval; assay type: functional, organism-based; conditions: Bronchoalveolar lavage
[11] = Subacute toxicity in ICR mouse assessed as pathological change in spleen at 500 to 100 mg/kg, IG measured for 10 days by hematoxylin and eosin dye based light microscopy; assay type: organism-based; conditions: in vivo, po, 240 h, dose 500-100 mg/kg, time 10 day
[12] = system: Mus musculus; test: Antiinflammatory activity against LPS-induced acute lung injury C57 mouse model assessed as decrease in LPS-induced TNFalpha level in serum at 20 to 40 mg/kg, po thrice at 12 hrs interval followed 30 mins treated with LPS by ELISA; assay type: functional, organism-based; conditions: dose 20-40 mg/kg, time 36.5 hrs
[13] = system: THP-1; test: Antiinflammatory activity against human THP-1 cells assessed as inhibition of LPS-stimulated TNFalpha mRNA expression pretreated for 2 hrs followed by stimulated with LPS by RT-qPCR analysis; assay type: functional, cell-based; conditions: dose 2.5-10 µM
[14] = system: THP-1; test: Antiinflammatory activity against human THP-1 cells assessed as inhibition of LPS-stimulated IL6 release measured after 30 mins by ELISA; assay type: functional, cell-based; conditions: THP-1, 0.5 h
[15] = Subacute toxicity in ICR mouse assessed as mortality at 500 to 100 mg/kg, IG measured for 10 days; assay type: organism-based; conditions: in vivo, po, 240 h, dose 500-100 mg/kg, time 10 day
[16] = system: Mus musculus; test: Antiinflammatory activity against LPS-induced acute lung injury C57 mouse model assessed as decrease in LPS-induced IL-6 level in serum at 20 to 40 mg/kg, po thrice at 12 hrs interval followed 30 mins treated with LPS by ELISA; assay type: functional, organism-based; conditions: dose 20-40 mg/kg, time 36.5 hrs
[17] = target: c-Jun N-terminal kinase (Mus musculus) (UniProt Q91Y86+Q9WTU6+Q61831); test: Inhibition of JNK phosphorylation in mouse J774A.1 cells assessed as decrease in LPS-stimulated JNK phosphorylation level pretreated at 10 uM for 1 hrs followed by induced with LPS for 40 mins by Western blot analysis; assay type: cell-based; conditions: J774.1, time 100.0 min
[18] = Subacute toxicity in ICR mouse assessed as pathological change in liver at 500 to 100 mg/kg, IG measured for 10 days by hematoxylin and eosin dye based light microscopy; assay type: organism-based; conditions: in vivo, po, 240 h, dose 500-100 mg/kg, time 10 day

Mitogen-activated protein kinase 9, sequence (P45984 whole entry): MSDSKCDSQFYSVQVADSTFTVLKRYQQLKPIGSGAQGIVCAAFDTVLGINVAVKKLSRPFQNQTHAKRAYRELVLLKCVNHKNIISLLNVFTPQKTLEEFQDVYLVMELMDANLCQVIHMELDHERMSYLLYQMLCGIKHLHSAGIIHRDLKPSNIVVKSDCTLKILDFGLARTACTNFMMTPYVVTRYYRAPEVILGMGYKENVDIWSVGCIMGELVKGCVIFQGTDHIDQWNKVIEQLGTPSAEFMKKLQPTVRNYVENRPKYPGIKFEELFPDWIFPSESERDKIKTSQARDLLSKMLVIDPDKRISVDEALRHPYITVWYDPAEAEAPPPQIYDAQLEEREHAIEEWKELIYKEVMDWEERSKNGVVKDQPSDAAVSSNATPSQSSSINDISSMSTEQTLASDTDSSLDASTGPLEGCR
c-Jun N-terminal kinase (Mus musculus), sequence (Q61831 whole entry, looked up): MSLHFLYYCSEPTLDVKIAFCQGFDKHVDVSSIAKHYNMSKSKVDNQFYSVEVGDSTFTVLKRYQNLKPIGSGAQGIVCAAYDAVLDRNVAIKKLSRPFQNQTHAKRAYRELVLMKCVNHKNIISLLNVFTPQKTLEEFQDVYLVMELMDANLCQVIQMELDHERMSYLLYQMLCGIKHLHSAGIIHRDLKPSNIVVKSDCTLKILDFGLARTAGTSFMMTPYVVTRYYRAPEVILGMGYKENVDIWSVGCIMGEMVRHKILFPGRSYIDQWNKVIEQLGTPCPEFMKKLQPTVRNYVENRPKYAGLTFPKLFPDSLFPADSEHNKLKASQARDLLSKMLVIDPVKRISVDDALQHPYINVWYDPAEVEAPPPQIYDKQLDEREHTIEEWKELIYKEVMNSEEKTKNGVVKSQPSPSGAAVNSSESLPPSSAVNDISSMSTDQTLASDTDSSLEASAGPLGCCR
c-Jun N-terminal kinase (Mus musculus), sequence (Q91Y86 whole entry, looked up): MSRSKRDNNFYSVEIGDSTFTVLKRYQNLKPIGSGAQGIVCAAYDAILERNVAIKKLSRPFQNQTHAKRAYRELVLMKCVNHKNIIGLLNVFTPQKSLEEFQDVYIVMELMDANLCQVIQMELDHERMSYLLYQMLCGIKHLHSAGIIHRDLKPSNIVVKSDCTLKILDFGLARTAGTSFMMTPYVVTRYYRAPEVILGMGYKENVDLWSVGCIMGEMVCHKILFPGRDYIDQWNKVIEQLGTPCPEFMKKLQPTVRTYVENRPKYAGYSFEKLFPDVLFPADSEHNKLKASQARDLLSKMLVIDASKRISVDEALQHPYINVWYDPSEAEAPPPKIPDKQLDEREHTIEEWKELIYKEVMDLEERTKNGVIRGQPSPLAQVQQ
c-Jun N-terminal kinase (Mus musculus), sequence (Q9WTU6 whole entry, looked up): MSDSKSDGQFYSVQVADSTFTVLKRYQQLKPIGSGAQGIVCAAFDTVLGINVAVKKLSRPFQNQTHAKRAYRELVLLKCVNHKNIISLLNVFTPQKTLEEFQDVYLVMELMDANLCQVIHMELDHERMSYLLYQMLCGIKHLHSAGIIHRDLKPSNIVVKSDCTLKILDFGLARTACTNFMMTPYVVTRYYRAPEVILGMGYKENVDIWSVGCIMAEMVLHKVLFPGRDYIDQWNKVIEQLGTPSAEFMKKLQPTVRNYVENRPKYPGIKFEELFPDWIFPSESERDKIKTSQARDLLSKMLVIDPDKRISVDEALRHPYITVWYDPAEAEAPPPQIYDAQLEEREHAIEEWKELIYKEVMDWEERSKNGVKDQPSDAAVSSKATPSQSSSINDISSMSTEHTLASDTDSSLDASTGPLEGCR

COc1cc2nccc(Oc3ccc(NC(=O)c4nn(-c5ccc(C)cc5)c(=O)cc4C)cc3)c2cc1OC
Activity [1]: Non-Toxic
Activity [2]: Active
Activity [3]: Dose-Dependent Effect
Activity [4]: Active
Activity [5]: Active
inhibition [6]: Active
Kd [7]: 79.2 µM
inhibition [8]: -3.77%
Activity [9]: Active
Activity [10]: inactive
Activity [11]: Non-Toxic
Activity [12]: Active
Activity [13]: Dose-Dependent Effect
IC50 [14]: 0.22 µM
Activity [15]: Non-Toxic
Activity [16]: Active
inhibition [17]: Active
Activity [18]: Non-Toxic
